Like-named read-outs stand apart in the source and are kept apart here.
How the values were obtained:
[1] = octanol/water; cited from earlier work
[2] = Miscibility with water and lipophilic cosmetic solvents (Neutralöl, Paraffinöl); type: physicochemical; conditions: for Löslichkeit + Neutralöl auf: 2,5 g: 0,1 g PKR made up with Neutralöl to 2,5 g; for Löslichkeit + Neutralöl auf: 5 g: 0,1 g PKR made up with Neutralöl to 5 g; for Löslichkeit + Neutralöl auf: 10 g: 0,1 g PKR made up with Neutralöl to 10 g; for Löslichkeit + Paraffinöl auf: 5 g: 0,1 g PKR made up with Paraffinöl to 5 g; for Löslichkeit + Paraffinöl auf: 10 g: 0,1 g PKR made up with Paraffinöl to 10 g; for Löslichkeit + Wasser auf: 10 g: 0,1 g PKR made up with water to 10 g; for Löslichkeit + Wasser auf: 20 g: 0,1 g PKR made up with water to 20 g; as to Löslichkeit + Neutralöl auf: 10 g: key: +: klare Lösung; -: Zweiphasengemisch; as to Löslichkeit + Neutralöl auf: 2,5 g: key: +: klare Lösung; -: Zweiphasengemisch; as to Löslichkeit + Neutralöl auf: 5 g: key: +: klare Lösung; -: Zweiphasengemisch
Excerpt: Mischungen aus 40 Gew.-% Kühlreagenz (a) und jeweils 60 bzw. 50 Gew.-% Alkohol (b) wurden gemäß Beispiel 1 erzeugt bzw. mit 10 Gew.-% Wasser versetzt.
Anschließend wurde alternativ mit Wasser, Neutralöl oder Paraffinöl versetzt.

[3] = cited from earlier work

Row | Structure (SMILES) | log Kow [1] | Löslichkeit + Neutralöl auf: 2,5 g ([2]; Lagertemperatur 8 °C) | Löslichkeit + Neutralöl auf: 2,5 g ([2]; Lagertemperatur 20 °C) | Löslichkeit + Neutralöl auf: 5 g ([2]; Lagertemperatur 8 °C) | Löslichkeit + Neutralöl auf: 5 g ([2]; Lagertemperatur 20 °C) | Löslichkeit + Neutralöl auf: 10 g ([2]; Lagertemperatur 8 °C) | Löslichkeit + Neutralöl auf: 10 g ([2]; Lagertemperatur 20 °C) | Löslichkeit + Paraffinöl auf: 5 g ([2]; Lagertemperatur 8 °C) | Löslichkeit + Paraffinöl auf: 5 g ([2]; Lagertemperatur 20 °C) | Löslichkeit + Paraffinöl auf: 10 g ([2]; Lagertemperatur 8 °C) | Löslichkeit + Paraffinöl auf: 10 g ([2]; Lagertemperatur 20 °C) | Löslichkeit + Wasser auf: 10 g ([2]; Lagertemperatur 8 °C) | Löslichkeit + Wasser auf: 10 g ([2]; Lagertemperatur 20 °C) | Löslichkeit + Wasser auf: 20 g ([2]; Lagertemperatur 8 °C) | Löslichkeit + Wasser auf: 20 g ([2]; Lagertemperatur 20 °C) | Löslichkeit in Wasser ([3]; water) | Löslichkeit in Wasser ([3]; bei 20 °C)
1 | CC(O)CO (stereo not shown) [1,2-Propandiol] | -0,90 |  |  |  |  |  |  |  |  |  |  |  |  |  |  |  | 
2 | CC(C)[C@@H]1CC[C@@H](C)C[C@H]1O [L-Menthol] |  | + | + | + | + | + | + | + | + | + | + | - | - | - | - | 0,355 g/L | 
3 | CNC(=O)C(C)(C(C)C)C(C)C [WS-23, 2-Isopropyl-N,2,3-trimethylbutanamid] |  | + | + | + | + | + | + | - | - | - | - | - | - | - | + |  | ca. 0,5 g/L
